Assays:
human DHODH = target: T1, human DHODH (Homo sapiens, UniProt Q02127); assay: DHODH enzymatic assay (DCIP absorbance, end-point); type: biochemical; settings: purified human DHODH, DCIP as final electron acceptor, end-point mode; read-out: hDHODH IC50
T1 construct: purchased Proteros PR-0044
Experimental: In vitro Assay: DHODH enzymatic assay
To detect DHODH enzyme activities, dichloroindophenol (DCIP) is added as the final electron acceptor in the assay. DCIP can accept electrons from the reduced coenzyme Q generated in the assay, or from dihydroorotate (DHO) via FMN by binding presumably to the ubiquinone pocket. […] The assay buffer contained […], pH 7.5, 150 mM NaCl, 0.5 mM EDTA, and 0.1% Triton X-100 in MilliQ water. Substrate consisting of 20 mM DHO, 5 mM CoQ6, and 1 mM DCIP in assay buffer, initiates the reaction. […] Absorbance measurements were obtained using the BMG Phera Star plate-reading spectrophotometer. Purified human DHODH was purchased from Proteros (cat. No. PR-0044). Chemicals were purchased from Sigma-Aldrich, Teknova, and Avanti Polar Lipids. Liquid handling was performed using Labcyte Echo and Formulatrix Tempest.

MOLM-13 cells = assay: MOLM-13 cellular assay (CellTiter-Glo cell viability); type: cell-based; settings: 72 hours exposure, cell viability by CellTiter-Glo
Experimental: In Vitro Assay: MOLM-13 Cellular Assay
MOLM-13 cells were obtained from DSMZ and were maintained in RPMI 1640+Glutamax+25 mM HEPES (Invitrogen, catalog number 72400) supplemented with 10% heat inactivated fetal bovine serum (FBS; Invitrogen, catalog number 16140). The day prior to assay set-up, cells were pelleted, resuspended in fresh media, counted, and cells were plated at 0.4×10^6 cell/mL in a T150 flask. On the day of the assay, cells were pelleted, resuspend in fresh media, counted and seeded at 5,000 cells/well in white opaque 96-well tissue culture treated microplates (Perkin Elmer, catalog number 6005680). Cells were exposed to different concentrations of test compounds at 37° C., 5% CO2 for 72 hours immediately after seeding. Cell viability was acquired on a Perkin Elmer Envision 2104 multilabel reader using the CellTiter-Glo assay (Promega) according to the manufacturer's instructions.

T1 sequence (Q02127 whole entry): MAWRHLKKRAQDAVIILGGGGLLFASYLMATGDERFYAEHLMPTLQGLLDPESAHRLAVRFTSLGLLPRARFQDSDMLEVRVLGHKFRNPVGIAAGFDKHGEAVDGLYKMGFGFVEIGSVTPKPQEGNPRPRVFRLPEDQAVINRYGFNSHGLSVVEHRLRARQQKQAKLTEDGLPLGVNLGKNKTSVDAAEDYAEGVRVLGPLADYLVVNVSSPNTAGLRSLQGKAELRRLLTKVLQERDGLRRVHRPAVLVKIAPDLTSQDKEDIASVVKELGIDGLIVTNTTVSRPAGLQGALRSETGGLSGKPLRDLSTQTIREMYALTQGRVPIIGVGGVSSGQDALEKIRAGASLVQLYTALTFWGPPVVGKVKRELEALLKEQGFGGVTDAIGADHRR

| SMILES | IC50 (human DHODH) | IC50 (MOLM-13 cells; Homo sapiens, MOLM-13, 72 h) | IC50 (MOLM-13 cells) |
| --- | --- | --- | --- |
| CCn1c(CO)nn(-c2cc3c(cc2F)C(=O)N(c2c(F)cccc2Cl)C(C)N3C(C)C)c1=O (stereo not shown) [Example 2, 3-(2-Chloro-6-fluorophenyl)-7-(4-ethyl-3-(hydroxymethyl)-5-oxo-4,5-dihydro-1H-1,2,4-triazol-1-yl)-6-fluoro-1-isopropyl-2-methyl-2,3-dihydroquinazolin-4(1H)-one] | 35 nM | 8.4 nM |  |
| C=C(C)[C@H]1CN(c2c(C)cc(C)nc2Cl)C(=O)c2cc(F)c(-n3nc(CO)n(CC)c3=O)cc21 (single isomer, unassigned; atropisomer 2) [Example 61, Atropisomer 2, (R*)-2-(2-Chloro-4,6-dimethylpyridin-3-yl)-6-(4-ethyl-3-(hydroxymethyl)-5-oxo-4,5-dihydro-1H-1,2,4-triazol-1-yl)-7-fluoro-4-(prop-1-en-2-yl)-3,4-dihydroisoquinolin-1(2H)-one] | 90 nM |  | 114 nM |
| C=C(C)C1CN(c2c(C)n[nH]c2Cl)C(=O)c2cc(F)c(-n3nc(CO)n(CC)c3=O)cc21 (single isomer, unassigned) [Example 48, (S*)-2-(5-Chloro-3-methyl-1H-pyrazol-4-yl)-6-(4-ethyl-3-(hydroxymethyl)-5-oxo-4,5-dihydro-1H-1,2,4-triazol-1-yl)-7-fluoro-4-(prop-1-en-2-yl)-3,4-dihydroisoquinolin-1(2H)-one] | 20 nM |  | 0.834 nM |
| C=C(C)[C@@H]1CN(c2c(C)cnc(OC)c2Cl)C(=O)c2cc(F)c(-n3nc(CO)n(CC)c3=O)cc21 (single isomer, unassigned; atropisomer 2) [Example 64, Atropisomer 2, (S*)-2-(3-Chloro-2-methoxy-5-methylpyridin-4-yl)-6-(4-ethyl-3-(hydroxymethyl)-5-oxo-4,5-dihydro-1H-1,2,4-triazol-1-yl)-7-fluoro-4-(prop-1-en-2-yl)-3,4-dihydroisoquinolin-1(2H)-one] | 60 nM |  | 15.3 nM |
| C=C(C)[C@@H]1CN(c2c(C)cnc(OC)c2C)C(=O)c2cc(F)c(-n3nc(CO)n(CC)c3=O)cc21 (single isomer, unassigned; atropisomer 2) [Example 56, Atropisomer 2, (S*)-6-(4-Ethyl-3-(hydroxymethyl)-5-oxo-4,5-dihydro-1H-1,2,4-triazol-1-yl)-7-fluoro-2-(2-methoxy-3,5-dimethylpyridin-4-yl)-4-(prop-1-en-2-yl)-3,4-dihydroisoquinolin-1(2H)-one] | > 100 nM |  | 101 nM |
| CCn1c(CO)nn(-c2cc3c(cc2F)C(=O)N(c2c(F)cccc2Cl)C(C)(C)N3C(C)C)c1=O [Example 3, 3-(2-Chloro-6-fluorophenyl)-7-(4-ethyl-3-(hydroxymethyl)-5-oxo-4,5-dihydro-1H-1,2,4-triazol-1-yl)-6-fluoro-1-isopropyl-2,2-dimethyl-2,3-dihydroquinazolin-4 (1H)-one] | 1040 nM | 440 nM |  |
| CCn1c(CO)nn(-c2ccc3c(c2)C(C(C)C)CN(c2ccccc2F)C3=O)c1=O (racemic) [Example 12, Racemic-6-(4-Ethyl-3-(hydroxymethyl)-5-oxo-4,5-dihydro-1H-1,2,4-triazol-1-yl)-2-(2-fluorophenyl)-4-isopropyl-3,4-dihydroisoquinolin-1(2H)-one] | 140 nM | 58 nM |  |
| CCn1c(CO)nn(-c2ccc3c(c2)C(C(C)C)CN(c2c(F)cccc2Cl)C3=O)c1=O (racemic) [Example 13, Racemic-2-(2-Chloro-6-fluorophenyl)-6-(4-ethyl-3-(hydroxymethyl)-5-oxo-4,5-dihydro-1H-1,2,4-triazol-1-yl)-4-isopropyl-3,4-dihydroisoquinolin-1(2H)-one] | 20 nM | 7.2 nM |  |
| C=C(C)C1CN(c2cc(C)ccc2F)C(=O)c2cc(F)c(-n3nc(CO)n(CC)c3=O)cc21 (single isomer, unassigned) [Example 39, (S *)-6-(4-Ethyl-3-(hydroxymethyl)-5-oxo-4,5-dihydro-1H-1,2,4-triazol-1-yl)-7-fluoro-2-(2-fluoro-5-methylphenyl)-4-(prop-1-en-2-yl)-3,4-dihydroisoquinolin-1(2H)-one] | 20 nM |  | 14.1 nM |

These reach a lower IC50 (human DHODH). Values come first.

| IC50 (human DHODH) | IC50 (MOLM-13 cells; Homo sapiens, MOLM-13, 72 h) | IC50 (MOLM-13 cells) | SMILES |
| --- | --- | --- | --- |
| 10 nM |  | 2.28 nM | C=C(C)C1CN(c2c(C)n[nH]c2Cl)C(=O)c2cc(F)c(-n3nc(CO)n(CC)c3=O)cc21 (single isomer, unassigned) [Example 49, (R *)-2-(5-Chloro-3-methyl-1H-pyrazol-4-yl)-6-(4-ethyl-3-(hydroxymethyl)-5-oxo-4,5-dihydro-1H-1,2,4-triazol-1-yl)-7-fluoro-4-(prop-1-en-2-yl)-3,4-dihydroisoquinolin-1(2H)-one] |
| 8 nM | 12.2 nM |  | C=C(C1CN(c2c(F)cccc2Cl)C(=O)c2ccc(-n3nc(CO)n(CC)c3=O)cc21)C(F)(F)F (racemic) [Example 73, Racemic 2-(2-Chloro-6-fluorophenyl)-6-(4-ethyl-3-(hydroxymethyl)-5-oxo-4,5-dihydro-1H-1,2,4-triazol-1-yl)-4-(3,3,3-trifluoroprop-1-en-2-yl)-3,4-dihydroisoquinolin-1(2H)-one] |
| 6 nM | 14.5 nM |  | CCC(C)C1CN(c2c(F)cccc2Cl)C(=O)c2cc(F)c(-n3nc(CO)n(CC)c3=O)cc21 (single isomer, unassigned) [Example 70, (S*)-4-((RS)-sec-butyl)-2-(2-chloro-6-fluorophenyl)-6-(4-ethyl-3-(hydroxymethyl)-5-oxo-4,5-dihydro-1H-1,2,4-triazol-1-yl)-7-fluoro-3,4-dihydroisoquinolin-1(2H)-one] |
| 4 nM |  | 6.79 nM | C=C(C)C1CN(c2ccccc2C)C(=O)c2cc(F)c(-n3nc(CO)n(CC)c3=O)cc21 (single isomer, unassigned) [Example 42, (R *)-6-(4-Ethyl-3-(hydroxymethyl)-5-oxo-4,5-dihydro-1H-1,2,4-triazol-1-yl)-7-fluoro-4-(prop-1-en-2-yl)-2-(o-tolyl)-3,4-dihydroisoquinolin-1(2H)-one] |
| 3 nM | 2.57 nM |  | CCn1c(CO)nn(-c2cc3c(cc2F)C(=O)N(c2c(F)cccc2Cl)CN3C2CCC2)c1=O [Example 19, 3-(2-Chloro-6-fluorophenyl)-1-cyclobutyl-7-(4-ethyl-3-(hydroxymethyl)-5-oxo-4,5-dihydro-1H-1,2,4-triazol-1-yl)-6-fluoro-2,3-dihydroquinazolin-4(1H)-one] |
| 3 nM | 3.39 nM |  | CCn1c(CO)nn(-c2cc3c(cc2F)C(=O)N(c2nc(OC)ccc2Cl)CN3C(C)C)c1=O [Example 30, 3-(3-Chloro-6-methoxypyridin-2-yl)-7-(4-ethyl-3-(hydroxymethyl)-5-oxo-4,5-dihydro-1H-1,2,4-triazol-1-yl)-6-fluoro-1-isopropyl-2,3-dihydroquinazolin-4(1H)-one] |
| 2.6 nM | 1.7 nM |  | CCn1c(CO)nn(-c2nc3c(cc2F)C(=O)N(c2c(F)cccc2Cl)CN3C2CCC2)c1=O [Example 7, 3-(2-chloro-6-fluorophenyl)-1-cyclobutyl-7-(4-ethyl-3-(hydroxymethyl)-5-oxo-4,5-dihydro-1H-1,2,4-triazol-1-yl)-6-fluoro-2,3-dihydropyrido[2,3-d]pyrimidin-4(1H)-one] |
| 2 nM | 3.99 nM |  | CCn1c(CO)nn(-c2cc3c(cc2F)C(=O)N(c2c(F)cccc2Cl)CN3CC(C)C)c1=O [Example 18, 3-(2-Chloro-6-fluorophenyl)-7-(4-ethyl-3-(hydroxymethyl)-5-oxo-4,5-dihydro-1H-1,2,4-triazol-1-yl)-6-fluoro-1-isobutyl-2,3-dihydroquinazolin-4(1H)-one] |
| 1.7 nM | 1 nM |  | C=C(C)C1CN(c2c(F)cccc2Cl)C(=O)c2ccc(-n3nc(CO)n(CC)c3=O)cc21 (racemic) [Example 11, Racemic-2-(2-Chloro-6-fluorophenyl)-6-(4-ethyl-3-(hydroxymethyl)-5-oxo-4,5-dihydro-1H-1,2,4-triazol-1-yl)-4-(prop-1-en-2-yl)-3,4-dihydroisoquinolin-1(2H)-one] |
| 1 nM |  | 1.99 nM | C=C(C)C1CN(c2ccccc2C)C(=O)c2cc(F)c(-n3nc(CO)n(CC)c3=O)cc21 (single isomer, unassigned) [Example 41, (S*)-6-(4-Ethyl-3-(hydroxymethyl)-5-oxo-4,5-dihydro-1H-1,2,4-triazol-1-yl)-7-fluoro-4-(prop-1-en-2-yl)-2-(o-tolyl)-3,4-dihydroisoquinolin-1(2H)-one] |
| 0.3 nM |  | < 1.69 nM | C=C(C)C1CN(c2c(F)cccc2Cl)C(=O)c2cc(F)c(-n3nc(CO)n(CC)c3=O)cc21 (single isomer, unassigned) [Example 69, (S*)-2-(2-Chloro-6-fluorophenyl)-6-(4-ethyl-3-(hydroxymethyl)-5-oxo-4,5-dihydro-1H-1,2,4-triazol-1-yl)-7-fluoro-4-(prop-1-en-2-yl)-3,4-dihydroisoquinolin-1(2H)-one] |

Source: patent US20220081422A1 (Janssen Biotech, Inc., priority 2019, published 2022)
